{"source": "patent US20250059232A1", "about": "“PENTAPEPTIDE AND USE THEREOF” (ENSOL BIOSCIENCES INC., priority 2021, published 2025)", "key": {"4T1 cells": {"system": "4T1 cells", "assay": "Syngeneic model implanted with paclitaxel-resistant 4T1 cells: tumor volume, Western blot of cleaved PARP and LC3II", "type": "in vivo, mouse", "details": "for Reduction in tumor volume compared to the group administered with only paclitaxel: Balb/c mice, 3 weeks; for Increase in cleaved PARP expression level in tumor compared to paclitaxel-only group / Reduction in LC3II expression level in tumor compared to paclitaxel-only group: Western blot after 3-week administration", "procedure": "Cell death and autophagy marker changes were determined by the Western blot method, using a syngeneic model implanted with 4T1 cells (American Type Culture Collection (ATCC)), which are mouse triple negative breast cancer tumor cells resistant to paclitaxel. The drug administration was started, when the tumor volume was reached to 70 mm^3 after a fat pad of Balb/c mice (6 weeks old, female) was transplanted with 4T1 cells in a concentration of 1×10^6 cells/head. For Week 1, paclitaxel 20 mg/kg was administered on Day 1 and Day 2, and the peptide (10, 100 mg/kg) of Example 1 was co-administered on Day 3, Day 5, and Day 7. In addition, the same process was performed for each of Week 2, and Week 3 (n=3). The tumor volumes were measured daily because the tumors grew very quickly. The changes in cleaved PARP, which is a cell death marker, and the changes in LC3II, which is an autophagy marker, in tumors were analyzed after necropsy on the day after the end of the 3-week administration, by a Western blot test.\nFIG. 5 is a graph illustrating the results of tumor volume measurements according to the number of days after treatment in animal experimentation. In FIG. 5, the x-axis represents the number of days elapsed after treatment and the y-axis represents the tumor volume change (mm^3).\nIn addition, the changes in cleaved PARP, which is a cell death marker, are shown in FIG. 6, and the changes in LC3II, which is an autophagy marker, are shown in FIG. 7. FIG. 6 is a graph showing the changes in expression of cleaved PARP, which is a cell death marker, for each treatment group in animal experimentation, and FIG. 7 is a graph showing the changes in expression of LC3II, which is an autophagy marker, for each treatment group in animal experimentation."}, "[1]": {"assay": "Stability test: HPLC relative purity of peptide dissolved in buffer, by pH and temperature", "type": "physicochemical", "procedure": "For Example 1 and Comparative Example 1, stability tests according to pH for each temperature were performed.\nStability tests for each peptide were performed by liquid chromatography purity analysis for each temperature and each pH according to analysis timing (initial, 24 hours, 130 hours). […] Samples were analyzed by injecting 20 ul of each sample with an auto-sample injector, and the analysis column was Inspire C18 (4.6×250 mm, […], 12 nm) manufactured by Dikma. The analysis temperature was 40° C., and a UV wavelength of 215 nm was used.\nOn the basis of the HPLC analysis results, relative purity was calculated for Comparative Example 1 and Example 1 for each storage condition. The relative purity is the percentage of measured purity changing according to the storage period, with the initial purity being set to 100% for each sample. FIGS. 1 and 2 are graphs showing the results of stability tests for Example and Comparative Example stored at a temperature of 25° C., in which FIG. 1 is a graph of a test result for 24 hours of storage, and FIG. 2 is a graph of a test result for 130 hours of storage. FIGS. 3 and 4 are graphs showing the results of stability tests for Example and Comparative Example stored at 40° C., in which FIG. 3 is a graph of a test result for 24 hours of storage, and FIG. 4 is a graph of a test result for 130 hours of storage. In each graph, the x-axis represents the test group by pH and the y-axis represents the relative purity […]."}, "[2]": {"system": "PC3 cells co-cultured with NK92 cells", "assay": "PC3/NK92 co-culture: Granzyme B expression by immuno-fluorescence staining", "type": "cell-based, human", "details": "300 uM with 10 μg/ml anti-PD-L1; 12 hours", "procedure": "The experiment described below was performed to identify the tumor suppression mechanism of the combination treatment of the peptide of Example 1 and anti-PD-L1, which is an immune checkpoint inhibitor. First, prostate cancer cell lines PC3 (ATCC) and NK92 (Immunotherapy Research Center, Korea Research Institute of Bioscience and Biotechnology) were co-cultured. 7.8×10^4 PC3 cells were seeded in 4-well chambers and stabilized by culturing overnight, and the PC3 cells were treated with 10 μg/ml of the anti-PD-L1 and 300 uM of the peptide of Example 1 for each condition while the same number of NK92 cells were additionally seeded. After 12 hours, the NK92 cells were removed by washing, and only tumor cells were fixed. Next, the expression level of Granzyme B was determined through immuno-fluorescence staining. The Granzyme B expression levels were calculated as proportions relative to the control. FIG. 12 is a graph showing a Granzyme B expression level for each test group in an anticancer effect evaluation test, in which the x-axis represents the test group and the y-axis represents the Granzyme B expression level (%) relative to the control group."}, "[3]": {"details": "10 mg/kg co-administered with paclitaxel"}, "[4]": {"details": "100 mg/kg co-administered with paclitaxel, p<0.05"}}}
{"substance": "Ac-QLHLD-OH [Example 1, acetyl-QLHLD]", "values": [{"measurement": "Reduction in tumor volume compared to the group administered with only paclitaxel", "setting": "4T1 cells; 10 mg/kg co-administered with paclitaxel 20 mg/kg", "value": 20, "unit": "%"}, {"measurement": "Increase in cleaved PARP expression level in tumor compared to paclitaxel-only group", "setting": "4T1 cells; [3]", "value": 2, "unit": "fold"}, {"measurement": "Reduction in LC3II expression level in tumor compared to paclitaxel-only group", "setting": "4T1 cells; [3]", "value": 38, "unit": "%"}, {"measurement": "Reduction in tumor volume compared to the group administered with only paclitaxel", "setting": "4T1 cells; 100 mg/kg co-administered with paclitaxel 20 mg/kg", "value": 40, "unit": "%"}, {"measurement": "Increase in cleaved PARP expression level in tumor compared to paclitaxel-only group", "setting": "4T1 cells; [4]", "value": 3, "unit": "fold"}, {"measurement": "Reduction in LC3II expression level in tumor compared to paclitaxel-only group", "setting": "4T1 cells; [4]", "value": 86, "unit": "%"}, {"measurement": "Stability (summary in words)", "setting": "[1]; liquid state, pH 2-9, 25 and 40° C., up to 130 hours", "value": "extremely stable regardless of storage conditions"}, {"measurement": "Relative purity", "setting": "[1]; pH 2, 25 ± 2° C., RH 60 ± 5%, storage 0 hours (initial set to 100%)", "value": 100.0, "unit": "%"}, {"measurement": "Relative purity", "setting": "[1]; pH 2, 25 ± 2° C., RH 60 ± 5%, storage 24 hours", "value": 99.7, "unit": "%"}, {"measurement": "Relative purity", "setting": "[1]; pH 2, 25 ± 2° C., RH 60 ± 5%, storage 130 hours", "value": 99.9, "unit": "%"}, {"measurement": "Relative purity", "setting": "[1]; pH 2, 40 ± 2° C., RH 75 ± 5%, storage 0 hours (initial set to 100%)", "value": 100.0, "unit": "%"}, {"measurement": "Relative purity", "setting": "[1]; pH 2, 40 ± 2° C., RH 75 ± 5%, storage 24 hours", "value": 99.4, "unit": "%"}, {"measurement": "Relative purity", "setting": "[1]; pH 2, 40 ± 2° C., RH 75 ± 5%, storage 130 hours", "value": 95.8, "unit": "%"}, {"measurement": "Relative purity", "setting": "[1]; pH 5, 25 ± 2° C., RH 60 ± 5%, storage 0 hours (initial set to 100%)", "value": 100.0, "unit": "%"}, {"measurement": "Relative purity", "setting": "[1]; pH 5, 25 ± 2° C., RH 60 ± 5%, storage 24 hours", "value": 100.0, "unit": "%"}, {"measurement": "Relative purity", "setting": "[1]; pH 5, 25 ± 2° C., RH 60 ± 5%, storage 130 hours", "value": 100.0, "unit": "%"}, {"measurement": "Relative purity", "setting": "[1]; pH 5, 40 ± 2° C., RH 75 ± 5%, storage 0 hours (initial set to 100%)", "value": 100.0, "unit": "%"}, {"measurement": "Relative purity", "setting": "[1]; pH 5, 40 ± 2° C., RH 75 ± 5%, storage 24 hours", "value": 100.0, "unit": "%"}, {"measurement": "Relative purity", "setting": "[1]; pH 5, 40 ± 2° C., RH 75 ± 5%, storage 130 hours", "value": 100.0, "unit": "%"}, {"measurement": "Relative purity", "setting": "[1]; pH 7, 25 ± 2° C., RH 60 ± 5%, storage 0 hours (initial set to 100%)", "value": 100.0, "unit": "%"}, {"measurement": "Relative purity", "setting": "[1]; pH 7, 25 ± 2° C., RH 60 ± 5%, storage 24 hours", "value": 100.0, "unit": "%"}, {"measurement": "Relative purity", "setting": "[1]; pH 7, 25 ± 2° C., RH 60 ± 5%, storage 130 hours", "value": 100.0, "unit": "%"}, {"measurement": "Relative purity", "setting": "[1]; pH 7, 40 ± 2° C., RH 75 ± 5%, storage 0 hours (initial set to 100%)", "value": 100.0, "unit": "%"}, {"measurement": "Relative purity", "setting": "[1]; pH 7, 40 ± 2° C., RH 75 ± 5%, storage 24 hours", "value": 100.0, "unit": "%"}, {"measurement": "Relative purity", "setting": "[1]; pH 7, 40 ± 2° C., RH 75 ± 5%, storage 130 hours", "value": 100.0, "unit": "%"}, {"measurement": "Relative purity", "setting": "[1]; pH 9, 25 ± 2° C., RH 60 ± 5%, storage 0 hours (initial set to 100%)", "value": 100.0, "unit": "%"}, {"measurement": "Relative purity", "setting": "[1]; pH 9, 25 ± 2° C., RH 60 ± 5%, storage 24 hours", "value": 100.0, "unit": "%"}, {"measurement": "Relative purity", "setting": "[1]; pH 9, 25 ± 2° C., RH 60 ± 5%, storage 130 hours", "value": 100.0, "unit": "%"}, {"measurement": "Relative purity", "setting": "[1]; pH 9, 40 ± 2° C., RH 75 ± 5%, storage 0 hours (initial set to 100%)", "value": 100.0, "unit": "%"}, {"measurement": "Relative purity", "setting": "[1]; pH 9, 40 ± 2° C., RH 75 ± 5%, storage 24 hours", "value": 99.9, "unit": "%"}, {"measurement": "Relative purity", "setting": "[1]; pH 9, 40 ± 2° C., RH 75 ± 5%, storage 130 hours", "value": 99.8, "unit": "%"}, {"measurement": "Granzyme B expression in tumor cells compared to the group treated with only anti-PD-L1", "setting": "[2]", "value": "increased significantly"}]}
